Assay results reported in patent US10449208B2, “Antiviral prodrugs of tenofovir” (Merck Sharp & Dohme Corp., priority 2016, dated 2019).
Read-outs that look alike come from different tables or passages of the source.

Key:
[1] = system: HIV-1 (H9/IIIB strain); assay: Multiple round HIV-1 infection assay (Viking assay) in MT4-GFP cells; assay type: cell-based; settings: MT4-GFP cells infected with HIV-1 H9/IIIB, inhibition of reproductive ratio R0
Method: Assessing Antiviral Potency in a Multiple Round HIV-1 Infection Assay (Viking Assay)
The antiviral activity of the tenofovir prodrugs of the Examples herein was assessed in an assay that measures the rate of replication of HIV in cell culture, termed the Viking assay (Viral KINetics in Green cells) and performed as follows. HIV-1 replication was monitored using MT4-gag-GFP clone D3 (hereafter designated MT4-GFP), which are MT-4 cells modified to harbor a GFP reporter gene, the expression of which is dependent on the HIV-1 expressed proteins tat and rev. Productive infection of an MT4-GFP cell with HIV-1 results in GFP expression approximately 24 h post-infection. MT4-GFP cells were maintained at 37° C./5% CO2/90% relative humidity in RPMI 1640 supplemented with 10% fetal bovine serum, 100 μ/ml penicillin/streptomycin, and 400 μg/ml G418 to maintain the reporter gene. For infections, MT4-GFP cells were placed in the same medium lacking G418 and infected overnight with HIV-1 (H9/IIIB strain) virus at an approximate multiplicity of infection of 0.01 in the same incubation conditions. Cells were then washed and re-suspended in either RPMI 1640 supplemented with 10% or 50% normal human serum (NFIS) at 1.6×10^5 cells/mL (10% NHS or 50% NHS, respectively). Compound plates were prepared by dispensing compounds dissolved in DMSO into wells of 384 well poly-D -lysine-coated plates (0.2 μl/well) using an ECHO acoustic dispenser. Each compound was tested in a 10-point serial 3-fold dilution (typical final concentrations: 8.4 μM-0.42 nM). Controls included no inhibitor (DMSO only) and a combination of three antiviral agents (efavirenz, indinavir, an in-house integrase strand transfer inhibitor at final concentrations of 4 μM each). Cells were added (50 μL/well) to compound plates and the infected cells were maintained at 37° C./5% CO2/90% relative humidity.
infected cells were quantified at two time points, ˜48 h and ˜72 h post -infection, by counting the number of green cells in each well using an Acumen eX3 scanner. The increase in the number of green cells over ˜24 h period gives the reproductive ratio, R0, which is typically 5-15 and has been shown experimentally to be in logarithmic phase (data not shown). Inhibition of R0 is calculated for each well, and IC50s determined by non-linear 4-parameter curve fitting.

[2] = Prodrug stability assay in bio-relevant media (FaSSIF with Pancreatin, simulated gastrointestinal tract conditions); assay type: in vitro ADME; settings: % parent prodrug remaining at 5 h vs 0 h, 37° C., 0.5 mg/mL Pancreatin in FaSSIF, HPLC area ratio
Method: Prodrug Stability Assay in Bio-Relevant Media
The following assay was employed to evaluate the stability of the prodrugs in simulated gastrointestinal tract conditions. Preparation of fasted state simulated intestinal fluid (FaSSIF) using Phares SIF Powder was carried out according to protocols from Phare Drug Delivery AG (Baselland, Switzerland). For sample preparation, 10 μL stock solutions (10 mM) of prodrug substance in DMSO was added to 990 μL of 0.5 mg/mL Pancreatin solution (Fisher CAS#8049-47-6) in FaSSIF. Two samples were prepared for each compound at initial. If the sample was clear solution at the beginning, ran one sample directly as initial by HPLC; if the sample was not clear at starting, diluted the sample by 100% ACN. Put the other sample under 37° C. and observed the sample at 5 h time-point. At 5 h time point, if the sample was clear solution then performed HPLC analysis directly; if it was not clear solution, diluted the sample by 100% ACN and assayed by HPLC. All the samples were vortexed for 3 min and observed before injection. For the diluted samples, the area will be multiplied by a factor when data analysis. The analysis was carried out with an Agilent 1100 series HPLC with autosampler. The column was usually a Poroshell 120 EC -C18, 4.6×50 mm, 2.7 μm. The flow rate was 1.8 mL/min, and the injection volume was 5 or 10 μL. UV detection was in the range 210-400 nm. The mobile phase consisted of solvent A (water plus 10 mM tetrabutylammonium bromide) and solvent B (acetonitrile) with a gradient of 90% solvent A at 0 min changing to 95% solvent B over 6 min, maintained for 1.5 min, then reverting to 90% solvent A over 1.6 min. The area of the parent in prodrug at 5h time point was divided by the area of the parent in prodrug at 0 h time point, to generate the % claimed parent ratio, which are summarized in Table 2 for GI Tract stability.

[3] = Human immunodeficiency virus 1, IIIB, 10% normal human serum, read-out: Viking, IC50 (10% NHS)
[4] = Human immunodeficiency virus 1, IIIB, 50% normal human serum, read-out: Viking, IC50 (50% NHS)
[5] = 10% normal human serum, read-out: Viking, IC50 (10% NHS)
[6] = 50% normal human serum, read-out: Viking, IC50 (50% NHS)

Structure (SMILES) | GI Tract stability [2] [%] | IC50 [1, 3] [nM] | IC50 [1, 4] [nM] | IC50 [1, 5] [nM] | IC50 [1, 6] [nM]
CCCCCCOC(=O)C(C)(C)NP(=O)(CO[C@H](C)Cn1cnc2c(N)ncnc21)O[C@@H](C)C(=O)OC(C)C (single isomer, unassigned) [Example 7B] | 76.64 | – | – | 0.37 | 1.01
CC(C)OC(=O)[C@H](C)OP(=O)(CO[C@H](C)Cn1cnc2c(N)ncnc21)NC(C)(C)C(=O)OC1CCCC1 (single isomer, unassigned) [Example 18A] | 76.31 | – | 16.5 | 6.59 | –
CC(C)OC(=O)[C@H](C)OP(=O)(CO[C@H](C)Cn1cnc2c(N)ncnc21)NC(C)(C)C(=O)OC1CCCC1 (single isomer, unassigned) [Example 18B] | 91.31 | – | – | 2.69 | 8.77
CCCCCCOC(=O)C(C)(C)NP(=O)(CO[C@H](C)Cn1cnc2c(N)ncnc21)O[C@H](C)C(=O)OC(C)C (single isomer, unassigned) [Example 9B] | 6.16 | – | – | 1 | 2.78
CCCCCOC(=O)C(C)(C)NP(=O)(CO[C@H](C)Cn1cnc2c(N)ncnc21)OCC(=O)OC(C)C (single isomer, unassigned) [Example 4A] | 99.07 | 13.9 | 86.5 | – | –
CC(C)OC(=O)COP(=O)(CO[C@H](C)Cn1cnc2c(N)ncnc21)NC(C)(C)C(=O)OC(C)C (single isomer, unassigned) [Example 3A] | 96.63 | 36.6 | – | – | 121
CC(C)OC(=O)C(C)(C)NP(=O)(CO[C@H](C)Cn1cnc2c(N)ncnc21)O[C@@H](C)C(=O)OC1CCCC1 (single isomer, unassigned) [Example 13A] | 70.30 | 6.17 | 51.1 | – | –
CCCCCOC(=O)C(C)(C)NP(=O)(CO[C@H](C)Cn1cnc2c(N)ncnc21)O[C@@H](C)C(=O)OC(C)C (single isomer, unassigned) [Example 2A] | 61.61 | – | – | 4.05 | 22.1
CC(C)OC(=O)[C@H](C)OP(=O)(CO[C@H](C)Cn1cnc2c(N)ncnc21)NC(C)(C)C(=O)OC(C)C (single isomer, unassigned) [Example 1A] | 85.74 | 14.7 | – | – | 61.1
CCCCCOC(=O)C(C)(C)NP(=O)(CO[C@H](C)Cn1cnc2c(N)ncnc21)O[C@@H](C)C(=O)OC(C)C (single isomer, unassigned) [Example 2B] | 91.95 | – | – | 18.2 | 70.9
CC(C)OC(=O)[C@H](C)OP(=O)(CO[C@H](C)Cn1cnc2c(N)ncnc21)NC(C)(C)C(=O)OC(C)C (single isomer, unassigned) [Example 1B] | 99.82 | – | – | 7.43 | 12.1
CCCCCOC(=O)COP(=O)(CO[C@H](C)Cn1cnc2c(N)ncnc21)NC(C)(C)C(=O)OC(C)C (single isomer, unassigned) [Example 8A] | 94.11 | – | – | 6.76 | 27
CC(C)OC(=O)[C@H](C)OP(=O)(CO[C@H](C)Cn1cnc2c(N)ncnc21)NC(C)(C)C(=O)OC1CCCCC1 (single isomer, unassigned) [Example 12A] | 98.95 | 5.71 | 25.2 | – | –

Further lines, with some results ahead:

GI Tract stability [2] [%] | Structure (SMILES) | IC50 [1, 3] [nM] | IC50 [1, 4] [nM] | IC50 [1, 5] [nM] | IC50 [1, 6] [nM]
98.30 | CCCCOC(=O)C(C)(C)NP(=O)(CO[C@H](C)Cn1cnc2c(N)ncnc21)OCC(=O)OC(C)C (stereo partly drawn) [Example 24, Butyl 2-((((((R)-1-(6-amino-9H-purin-9-yl)propan-2-yl)oxy)methyl)(2-isopropoxy-2-oxoethoxy)phosphoryl)amino)-2-methylpropanoate] | 4.78 | 27.8 | – | –
88.87 | CCCCCOC(=O)C(C)(C)NP(=O)(CO[C@H](C)Cn1cnc2c(N)ncnc21)OCC(=O)OC1CCCC1 (stereo partly drawn) [Example 36, Pentyl 2-((((((R)-1-(6-amino-9H-purin-9-yl)propan-2-yl)oxy)methyl)(2-(cyclopentyloxy)-2-oxoethoxy)phosphoryl)amino)-2-methylpropanoate] | 2.39 | 6.04 | – | –
73.54 | CC(C)OC(=O)COP(=O)(CO[C@H](C)Cn1cnc2c(N)ncnc21)NC(C)(C)C(=O)OCc1ccccc1 (mixture of isomers) [Example 42, Benzyl 2-((((((R)-1-(6-amino-9H-purin-9-yl)propan-2-yl)oxy)methyl)(2-isopropoxy-2-oxoethoxy)phosphoryl)amino)-2-methylpropanoate] | 5 | 21.8 | – | –
93.55 | CC(C)OC(=O)[C@H](C)OP(=O)(CO[C@H](C)Cn1cnc2c(N)ncnc21)NC1(C(=O)OC(C)C)CC1 (stereo partly drawn) [Example 47, Isopropyl 1-((((((R)-1-(6-amino-9H-purin-9-yl)propan-2-yl)oxy)methyl)(((S)-1-isopropoxy-1-oxopropan-2-yl)oxy)phosphoryl)amino) cyclopropane-1-carboxylate] | 91.6 | 209 | – | –
58.50 | CC(C)OC(=O)[C@H](C)OP(=O)(CO[C@H](C)Cn1cnc2c(N)ncnc21)NC(C)(C)C(=O)OCc1ccccc1 (stereo partly drawn) [Example 41, Benzyl 2-((((((R)-1-(6-amino-9H-purin-9-yl)propan-2-yl)oxy)methyl)(((S)-1-isopropoxy-1-oxopropan-2-yl)oxy)phosphoryl)amino)-2-methylpropanoate] | 2.87 | 12.5 | – | –
96.64 | CCCOC(=O)C(C)(C)NP(=O)(CO[C@H](C)Cn1cnc2c(N)ncnc21)OCC(=O)OC1CCCC1 (stereo partly drawn) [Example 38, Propyl 2-((((((R)-1-(6-amino-9H-purin-9-yl)propan-2-yl)oxy)methyl)(2-(cyclopentyloxy)-2-oxoethoxy)phosphoryl)amino)-2-methylpropanoate] | 2.68 | 6.26 | – | –
7.19 | CC(C)OC(=O)[C@@H](C)OP(=O)(CO[C@H](C)Cn1cnc2c(N)ncnc21)NC(C)(C)C(=O)OC(C)C (stereo partly drawn) [Example 20, Isopropyl 2-((((((R)-1-(6-amino-9H-purin-9-yl)propan-2-yl)oxy)methyl)(((R)-1-isopropoxy-1-oxopropan-2-yl)oxy)phosphoryl)amino)-2-methylpropanoate] | 21 | 97 | – | –
26.96 | CCCCCCOC(=O)C(C)(C)NP(=O)(CO[C@H](C)Cn1cnc2c(N)ncnc21)O[C@@H](Cc1ccccc1)C(=O)OC(C)C (stereo partly drawn) [Example 33, Hexyl 2-((((((R)-1-(6-amino-9H-purin-9-yl)propan-2-yl)oxy)methyl)(((S)-1-isopropoxy-1-oxo-3-phenylpropan-2-yl)oxy)phosphoryl)amino)-2-methylpropanoate] | 1.69 | 5.06 | – | –
